Reference: patent US20230172204A1 (BASF SE, priority 2020, published 2023)

Assays:
[1] = system: Phakopsora pachyrhizi (F129L); test: Protective control of soybean rust on soybeans (PHAKPA P2); type: in vivo; conditions: for PHAKPA (F129L) Disease level (%) P2 at 4 ppm / PHAKPA (F129L) Disease level (%) P2 at 16 ppm: P2 protective, % diseased leaf area; for % PHAKPA (F129L) Disease level P2 at 4 ppm: protective P2, 4 ppm; for % PHAKPA (F129L) Disease level P2 at 4 ppm / % PHAKPA (F129L) Disease level P2 at 16 ppm: soybean rust F129L; for % PHAKPA (F129L) Disease level P2 at 16 ppm: protective P2, 16 ppm
[2] = system: Phakopsora pachyrhizi (F129L); test: Protective control of soybean rust on soybeans (PHAKPA P6); type: in vivo; conditions: for PHAKPA (F129L) Disease level (%) P6 at 4 ppm / PHAKPA (F129L) Disease level (%) P6 at 16 ppm: P6 protective, % diseased leaf area; for % PHAKPA (F129L) Disease level P6 at 4 ppm: protective P6, 4 ppm; for % PHAKPA (F129L) Disease level P6 at 4 ppm / % PHAKPA (F129L) Disease level P6 at 16 ppm: soybean rust F129L; for % PHAKPA (F129L) Disease level P6 at 16 ppm: protective P6, 16 ppm

Compound | PHAKPA (F129L) Disease level (%) P2 at 4 ppm [1] [%] | PHAKPA (F129L) Disease level (%) P6 at 4 ppm [2] [%] | % PHAKPA (F129L) Disease level P2 at 4 ppm [1] [%] | % PHAKPA (F129L) Disease level P2 at 16 ppm [1] [%] | % PHAKPA (F129L) Disease level P6 at 4 ppm [2] [%] | % PHAKPA (F129L) Disease level P6 at 16 ppm [2] [%] | PHAKPA (F129L) Disease level (%) P2 at 16 ppm [1] [%] | PHAKPA (F129L) Disease level (%) P6 at 16 ppm [2] [%]
CNC(=O)/C(=N/OC)c1ccccc1CO/N=C(\C)c1ccc(C)cc1 [reference compound] | 100 | 100 |  |  |  |  |  | 
CO/N=C(/C(=O)OC)c1cccc(C)c1CO/N=C(\C)c1cc(C(F)(F)F)cc(F)c1F [compound 180] |  |  | 40 | 7 | 5 | 0 |  | 
CNC(=O)/C(=N/OC)c1cccc(C(F)F)c1CO/N=C(\C)c1cccc(C(F)(F)F)c1 [Ex. 23] |  |  | 12 | 1 | 20 | 1 |  | 
C#Cc1cc(F)c(F)c(/C(C)=N/OCc2c(C)cccc2/C(=N\OC)C(=O)OC)c1 [compound 242] |  |  | 87 | 10 | 87 | 20 |  | 
CNC(=O)/C(=N/OC)c1ccccc1CO/N=C(\C)c1ccc(Cl)cc1 [reference compound] | 40 | 80 |  |  |  |  |  | 
CO/N=C(/C(=O)OC)c1cccc(C)c1CO/N=C(\C)c1cccc(CC2COC2)c1 [compound 160] |  |  | 100 | 97 | 87 | 90 |  | 
CNC(=O)/C(=N/OC)c1cccc(C)c1CO/N=C(\C)c1ccc(Cl)c(Cl)c1C(F)(F)F [compound 431] |  |  | 32 | 7 | 40 | 12 |  | 
CNC(=O)/C(=N/OC)c1ccccc1CO/N=C(\C)c1ccc(Cl)c(C(F)(F)F)c1 [reference compound] |  |  |  |  |  |  | 11 | 4
CNC(=O)/C(=N/OC)c1cccc(C)c1CO/N=C(\C)c1ccccc1-c1ccccc1 [compound 124] |  |  | 98 | 87 | 92 | 75 |  | 
C#Cc1cccc(/C(C)=N/OCc2c(C)cccc2/C(=N\OC)C(=O)NC)c1 [compound 54] |  |  | 0 | 1 | 20 | 0 |  | 
CNC(=O)/C(=N/OC)c1cccc(C)c1CO/N=C(\C)c1cc(Cl)c(F)c(Cl)c1 [compound 247] |  |  | 16 | 2 | 33 | 8 |  | 
CO/N=C(/C(=O)OC)c1ccccc1CO/N=C(\C)c1cccc(C#N)c1 [reference compound] |  |  |  |  |  |  | 80 | 43
CO/N=C(/C(=O)OC)c1cccc(C)c1CO/N=C(\C)c1cc(F)ccc1Br [compound 254] |  |  | 100 | 77 | 100 | 100 |  | 
CNC(=O)/C(=N/OC)c1cccc(C)c1CO/N=C(\C)c1ccccc1COC [compound 277] |  |  | 100 | 60 | 100 | 100 |  | 
CNC(=O)/C(=N/OC)c1cccc(C)c1CO/N=C(\C)c1c(Cl)cc(Cl)cc1OC(F)(F)F [compound 428] |  |  | 70 | 11 | 83 | 20 |  | 
CNC(=O)/C(=N/OC)c1cccc(C)c1CO/N=C(\C)c1ccc(-c2ccccc2)cc1 [Ex. 113] |  |  | 25 | 26 | 41 | 25 | 17 | 6
CO/N=C(\C)COc1cccc(/C(C)=N/OCc2c(C)cccc2/C(=N\OC)C(=O)OC)c1 [compound 227] |  |  | 100 | 47 | 100 | 57 |  | 
CNC(=O)/C(=N/OC)c1cccc(C)c1CO/N=C(\C)c1cccc(C2CC2(Cl)Cl)c1 (centres unmarked) [compound 75] |  |  | 8 | 0 | 13 | 1 |  | 
CO/N=C(/C(=O)OC)c1cccc(C)c1CO/N=C(\C)c1cccc(OC(F)(F)F)c1 [Ex. 28] |  |  |  | 0 |  | 0 | 30 | 18
CNC(=O)/C(=N/OC)c1cccc(C)c1CO/N=C(\C)c1ccc(/C(C)=N/OC)cc1 [compound 182] |  |  | 6 | 0 | 13 | 0 |  | 
CO/N=C(/C(=O)OC)c1cccc(C)c1CO/N=C(\C)c1ccc(-c2cc(C)on2)cc1 [compound 63] |  |  | 90 | 77 | 93 | 77 |  | 
COC=C(C(=O)OC)c1cccc(C)c1CON=C(C)c1ccc(OC)cc1C(F)(F)F [compound 464] |  |  | 1 | 0 | 8 | 0 |  | 
CO/N=C(/C(=O)OC)c1cccc(C)c1CO/N=C(\C)c1cc(F)c(F)cc1C(F)(F)F [compound 409] |  |  | 77 | 40 | 83 | 73 |  | 
